Source: patent US8685992B2, “Histone deacetylase inhibitors based simultaneously on trisubstituted 1H-pyrroles and aromatic and heteroaromatic spacers” (Universidad del País Vasco, priority 2009, dated 2014)

Columns and labels:
PC-3 = assay: Cancer cell growth inhibition, PC-3; format: cell-based, human; details: Homo sapiens; PC-3, Prostate Cancer, 72 h treatment
Procedure: (§1) Cell culture-based assays were used to evaluate the ability of compounds of the invention to inhibit cancer cell growth inhibition.
(§2) Cells were obtained from the American Type Culture Collection (ATCC). Cells were cultured at 37° C. with 5% CO2 in the appropriate growth medium (see table below), and harvested respectively during the logarithmic growth period and counted with hemocytometer. The cell viability was over 98% by trypan blue exclusion. Cell concentrations were adjusted between 5×10^4 and 2×10^5 cells/ml with respective medium.
(§3) Stock solutions of test compounds and positive drugs Doxorubicin (Zhejiang, Haizheng, China), Paclitaxel (Beijing, Xiehe, China), Vincristin (Shenzhen Wanle, China), 5-FU (Tianjin jinyaoanjisuan, China), Irinotecan (Jiangsu Hengrui, China) and Cisplatin Nanjing zhiyao, China) were prepared in dimethyl sulphoxide (DMSO) or PBS at 20 mM.
(§4) All treatments were performed in triplicate. 10 μl drug solution was added to each well and incubated for 72 hours. At the end of the incubation, 20 μl of the freshly prepared MTS/PMS mixture solution was added to each well and incubated for 4 hours at 37° C. in a humidified, 5% CO2 atmosphere. Absorbance was read at 490 nm using SpectraMAX Plus microplate spectrophotometer. […] In order to calculate IC50, a dose-responsive curve was fitted using nonlinear regression model with a sigmoidal dose response.

SK-BR-3 = assay: Cancer cell growth inhibition, SK-BR-3; format: cell-based, human; details: Homo sapiens; SK-BR-3, Breast Cancer, 72 h treatment
Procedure: as §1, §2, §3, §4

RPMI-8226 = assay: Cancer cell growth inhibition, RPMI-8226; format: cell-based, human; details: Homo sapiens; RPMI-8226, Orthotopic Multiple Myeloma, 72 h treatment
Procedure: as §1, §2, §3, §4

Human HDAC5 = Human HDAC5 (Homo sapiens (Human), UniProt Q9UQL6); assay: HDAC5 fluorogenic peptide deacetylation assay; format: biochemical; details: human HDAC5, 50 μM substrate, 30° C., 2 h; read-out: IC50 (nM) of enzyme activity HDAC5
DU145 = assay: Cancer cell growth inhibition, DU145; format: cell-based, human; details: Homo sapiens, DU-145; DU145, Prostate Cancer, 72 h treatment
Procedure: as §1, §2, §3, §4

CNE2 = assay: Cancer cell growth inhibition, CNE2; format: cell-based, human; details: Homo sapiens, CNE-2; CNE2, Nasopharyngeal Cancer, 72 h treatment
Procedure: as §1, §2, §3, §4

[1] = tested on: Nuclear Extract from HeLa Cells; assay: HeLa Nuclear Extract HDAC assay; format: biochemical, human; details: 50 μM substrate, 30° C., 2 h, read-out: IC50 (nM) of enzyme activity HeLa
Human HDAC6 = Human HDAC6 (Homo sapiens (Human), UniProt Q9UBN7); assay: HDAC6 fluorogenic peptide deacetylation assay; format: biochemical; details: human HDAC6, 50 μM substrate, 30° C., 2 h; read-out: IC50 (nM) of enzyme activity HDAC6
SW480 = assay: Cancer cell growth inhibition, SW480; format: cell-based, human; details: Homo sapiens; SW480, Colorectal Cancer, 72 h treatment
Procedure: as §1, §2, §3, §4

Human HDAC11 = Human HDAC11 (Homo sapiens (Human), UniProt Q96DB2); assay: HDAC11 fluorogenic peptide deacetylation assay; format: biochemical; details: human HDAC11, 50 μM substrate, 30° C., 2 h; read-out: IC50 (nM) of enzyme activity HDAC11
PANC-1 = assay: Cancer cell growth inhibition, PANC-1; format: cell-based, human; details: Homo sapiens; PANC-1, Pancreatic Cancer, 72 h treatment
Procedure: as §1, §2, §3, §4

NCI-N87 = assay: Cancer cell growth inhibition, NCI-N87; format: cell-based, human; details: Homo sapiens; NCI-N87, Gastric Cancer, 72 h treatment
Procedure: as §1, §2, §3, §4

Calu-6 = assay: Cancer cell growth inhibition, Calu-6; format: cell-based, human; details: Homo sapiens; Calu-6, Lung Cancer, 72 h treatment
Procedure: as §1, §2, §3, §4

A375 = assay: Cancer cell growth inhibition, A375; format: cell-based, human; details: Homo sapiens, A-375; A375, Melanoma, 72 h treatment
Procedure: as §1, §2, §3, §4

Human HDAC9 = Human HDAC9 (Homo sapiens (Human), UniProt Q9UKV0); assay: HDAC9 fluorogenic peptide deacetylation assay; format: biochemical; details: human HDAC9, 50 μM substrate, 30° C., 2 h; read-out: IC50 (nM) of enzyme activity HDAC9
Human HDAC2 = Human HDAC2 (Homo sapiens (Human), UniProt Q92769); assay: HDAC2 fluorogenic peptide deacetylation assay; format: biochemical; details: human HDAC2, 50 μM substrate, 30° C., 2 h; read-out: IC50 (nM) of enzyme activity HDAC2
BGC823 = assay: Cancer cell growth inhibition, BGC823; format: cell-based, human; details: Homo sapiens, BGC-823; BGC823, Gastric Cancer, 72 h treatment
Procedure: as §1, §2, §3, §4

SW620 = assay: Cancer cell growth inhibition, SW620; format: cell-based, human; details: Homo sapiens, SW-620; SW620, Colorectal Cancer, 72 h treatment
Procedure: as §1, §2, §3, §4

NCI-H226 = assay: Cancer cell growth inhibition, NCI-H226; format: cell-based, human; details: Homo sapiens; NCI-H226, Lung Cancer, 72 h treatment
Procedure: as §1, §2, §3, §4

HepG2 = assay: Cancer cell growth inhibition, HepG2; format: cell-based, human; details: Homo sapiens; HepG2, Liver Cancer, 72 h treatment
Procedure: as §1, §2, §3, §4

A549 = assay: Cancer cell growth inhibition, A549; format: cell-based, human; details: Homo sapiens; A549, Lung Cancer, 72 h treatment
Procedure: as §1, §2, §3, §4

MCG803 = assay: Cancer cell growth inhibition, MCG803; format: cell-based, human; details: Homo sapiens; MCG803, Gastric Cancer, 72 h treatment
Procedure: as §1, §2, §3, §4

Human HDAC10 = Human HDAC10 (Homo sapiens (Human), UniProt Q969S8); assay: HDAC10 fluorogenic peptide deacetylation assay; format: biochemical; details: human HDAC10, 50 μM substrate, 30° C., 2 h; read-out: IC50 (nM) of enzyme activity HDAC10
MCF-7-218 = assay: Cancer cell growth inhibition, MCF-7-218; format: cell-based; details: Homo sapiens; MCF-7-218, Breast Cancer, 72 h treatment
Procedure: as §1, §2, §3, §4

MCF-7-FL = assay: Cancer cell growth inhibition, MCF-7-FL; format: cell-based; details: Homo sapiens, Breast Cancer, 72 h treatment
Procedure: as §1, §2, §3, §4

Sequence of Human HDAC6 (Q9UBN7 whole entry): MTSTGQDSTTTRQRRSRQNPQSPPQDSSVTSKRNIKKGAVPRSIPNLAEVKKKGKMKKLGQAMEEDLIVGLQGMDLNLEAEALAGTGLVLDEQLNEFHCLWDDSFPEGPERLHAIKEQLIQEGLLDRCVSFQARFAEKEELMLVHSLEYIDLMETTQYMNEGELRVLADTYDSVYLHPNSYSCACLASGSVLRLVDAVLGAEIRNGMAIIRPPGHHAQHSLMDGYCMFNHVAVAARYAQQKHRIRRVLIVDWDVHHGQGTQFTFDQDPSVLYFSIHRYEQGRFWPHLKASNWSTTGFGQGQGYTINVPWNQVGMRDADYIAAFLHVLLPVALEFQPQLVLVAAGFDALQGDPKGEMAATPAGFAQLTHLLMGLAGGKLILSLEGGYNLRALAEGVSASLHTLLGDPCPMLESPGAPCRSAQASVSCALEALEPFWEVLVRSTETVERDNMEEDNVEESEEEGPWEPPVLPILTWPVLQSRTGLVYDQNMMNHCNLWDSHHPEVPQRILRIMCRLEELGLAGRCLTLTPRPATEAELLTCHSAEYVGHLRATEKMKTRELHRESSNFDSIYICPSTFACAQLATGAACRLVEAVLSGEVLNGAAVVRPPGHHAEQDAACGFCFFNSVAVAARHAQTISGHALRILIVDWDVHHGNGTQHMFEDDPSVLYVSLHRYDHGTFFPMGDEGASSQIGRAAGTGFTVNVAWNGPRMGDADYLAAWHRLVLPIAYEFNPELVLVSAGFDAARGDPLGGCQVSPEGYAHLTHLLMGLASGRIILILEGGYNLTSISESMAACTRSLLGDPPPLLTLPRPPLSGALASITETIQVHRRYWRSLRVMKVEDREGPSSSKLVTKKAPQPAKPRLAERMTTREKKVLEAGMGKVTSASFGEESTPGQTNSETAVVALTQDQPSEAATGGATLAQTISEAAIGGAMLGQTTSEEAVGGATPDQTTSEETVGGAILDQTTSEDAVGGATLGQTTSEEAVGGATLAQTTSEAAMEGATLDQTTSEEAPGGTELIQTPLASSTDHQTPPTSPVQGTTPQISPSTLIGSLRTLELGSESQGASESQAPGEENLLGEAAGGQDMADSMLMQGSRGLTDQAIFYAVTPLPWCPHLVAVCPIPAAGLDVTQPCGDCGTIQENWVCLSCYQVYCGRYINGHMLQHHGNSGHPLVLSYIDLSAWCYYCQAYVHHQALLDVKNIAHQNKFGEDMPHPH
Sequence of Human HDAC2 (Q92769 whole entry): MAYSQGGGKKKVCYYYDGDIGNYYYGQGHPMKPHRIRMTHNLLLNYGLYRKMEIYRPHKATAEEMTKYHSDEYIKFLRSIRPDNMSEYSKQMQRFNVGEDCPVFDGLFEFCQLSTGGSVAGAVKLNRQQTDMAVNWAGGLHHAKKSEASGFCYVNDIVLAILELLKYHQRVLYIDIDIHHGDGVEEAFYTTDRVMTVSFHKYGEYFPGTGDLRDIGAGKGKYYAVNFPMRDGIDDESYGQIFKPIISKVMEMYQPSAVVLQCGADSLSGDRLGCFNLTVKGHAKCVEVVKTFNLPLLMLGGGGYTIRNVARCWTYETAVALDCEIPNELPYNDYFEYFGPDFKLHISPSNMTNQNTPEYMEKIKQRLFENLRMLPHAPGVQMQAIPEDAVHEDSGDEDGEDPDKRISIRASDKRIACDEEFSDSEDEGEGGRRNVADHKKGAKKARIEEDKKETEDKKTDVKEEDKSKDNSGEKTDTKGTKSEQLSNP
Sequence of Human HDAC10 (Q969S8 1-631): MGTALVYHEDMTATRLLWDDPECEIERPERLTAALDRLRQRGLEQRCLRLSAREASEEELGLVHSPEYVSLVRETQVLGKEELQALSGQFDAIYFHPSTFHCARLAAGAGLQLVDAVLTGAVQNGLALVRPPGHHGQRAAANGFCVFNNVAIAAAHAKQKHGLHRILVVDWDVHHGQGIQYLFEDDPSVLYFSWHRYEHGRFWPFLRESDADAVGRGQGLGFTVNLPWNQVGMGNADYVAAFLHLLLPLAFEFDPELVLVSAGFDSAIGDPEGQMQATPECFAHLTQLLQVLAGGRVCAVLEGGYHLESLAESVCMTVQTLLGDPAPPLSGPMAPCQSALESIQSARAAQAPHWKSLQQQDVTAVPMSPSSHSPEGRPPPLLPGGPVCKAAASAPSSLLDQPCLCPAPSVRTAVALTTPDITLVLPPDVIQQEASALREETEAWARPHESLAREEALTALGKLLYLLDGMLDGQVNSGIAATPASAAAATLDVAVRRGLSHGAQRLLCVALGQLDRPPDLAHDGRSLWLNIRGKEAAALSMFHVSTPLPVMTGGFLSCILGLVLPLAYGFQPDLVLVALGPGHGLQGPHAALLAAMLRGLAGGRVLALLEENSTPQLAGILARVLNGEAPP
Sequence of Human HDAC9 (Q9UKV0 other isoform, or with tags, fused parts or gaps): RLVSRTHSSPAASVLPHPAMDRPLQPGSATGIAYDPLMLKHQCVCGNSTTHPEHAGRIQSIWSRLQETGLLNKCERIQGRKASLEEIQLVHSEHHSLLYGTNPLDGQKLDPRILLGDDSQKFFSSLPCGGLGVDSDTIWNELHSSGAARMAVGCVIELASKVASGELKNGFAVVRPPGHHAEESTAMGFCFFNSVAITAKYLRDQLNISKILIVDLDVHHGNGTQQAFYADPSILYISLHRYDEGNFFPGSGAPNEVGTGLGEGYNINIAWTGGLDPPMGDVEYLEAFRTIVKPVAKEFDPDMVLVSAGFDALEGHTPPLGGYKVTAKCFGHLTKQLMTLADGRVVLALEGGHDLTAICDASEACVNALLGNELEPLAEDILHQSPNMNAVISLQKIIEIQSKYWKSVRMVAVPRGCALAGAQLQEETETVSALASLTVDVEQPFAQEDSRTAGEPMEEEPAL
Sequence of Human HDAC5 (Q9UQL6 other isoform, or with tags, fused parts or gaps): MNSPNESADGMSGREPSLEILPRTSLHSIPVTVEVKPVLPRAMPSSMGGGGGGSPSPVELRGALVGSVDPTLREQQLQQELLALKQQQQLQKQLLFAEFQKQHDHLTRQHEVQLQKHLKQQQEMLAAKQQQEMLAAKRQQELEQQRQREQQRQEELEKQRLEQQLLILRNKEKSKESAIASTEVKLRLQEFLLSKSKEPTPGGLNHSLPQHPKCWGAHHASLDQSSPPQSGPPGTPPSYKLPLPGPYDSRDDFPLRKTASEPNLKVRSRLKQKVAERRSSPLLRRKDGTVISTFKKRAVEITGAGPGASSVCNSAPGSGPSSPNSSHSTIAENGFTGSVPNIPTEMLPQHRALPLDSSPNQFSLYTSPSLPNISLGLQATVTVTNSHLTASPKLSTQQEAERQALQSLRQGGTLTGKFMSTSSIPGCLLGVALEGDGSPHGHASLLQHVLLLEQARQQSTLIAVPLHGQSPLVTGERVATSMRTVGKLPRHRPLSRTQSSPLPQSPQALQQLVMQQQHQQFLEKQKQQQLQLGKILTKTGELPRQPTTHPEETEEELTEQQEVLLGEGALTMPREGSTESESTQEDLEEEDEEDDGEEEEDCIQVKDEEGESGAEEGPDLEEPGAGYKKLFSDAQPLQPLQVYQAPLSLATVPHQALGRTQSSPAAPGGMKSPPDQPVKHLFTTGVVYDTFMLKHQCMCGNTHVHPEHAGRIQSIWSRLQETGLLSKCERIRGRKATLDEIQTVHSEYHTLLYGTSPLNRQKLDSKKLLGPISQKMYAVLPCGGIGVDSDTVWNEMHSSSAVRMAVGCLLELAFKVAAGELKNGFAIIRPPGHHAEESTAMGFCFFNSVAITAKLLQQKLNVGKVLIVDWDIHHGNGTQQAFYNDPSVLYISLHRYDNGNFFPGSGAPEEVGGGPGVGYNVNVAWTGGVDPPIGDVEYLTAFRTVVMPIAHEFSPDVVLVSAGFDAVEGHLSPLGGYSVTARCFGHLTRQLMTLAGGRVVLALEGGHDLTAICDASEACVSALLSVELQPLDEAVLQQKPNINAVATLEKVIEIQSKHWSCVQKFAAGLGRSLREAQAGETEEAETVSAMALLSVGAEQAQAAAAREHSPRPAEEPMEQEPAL
Sequence of Human HDAC11 (Q96DB2 whole entry): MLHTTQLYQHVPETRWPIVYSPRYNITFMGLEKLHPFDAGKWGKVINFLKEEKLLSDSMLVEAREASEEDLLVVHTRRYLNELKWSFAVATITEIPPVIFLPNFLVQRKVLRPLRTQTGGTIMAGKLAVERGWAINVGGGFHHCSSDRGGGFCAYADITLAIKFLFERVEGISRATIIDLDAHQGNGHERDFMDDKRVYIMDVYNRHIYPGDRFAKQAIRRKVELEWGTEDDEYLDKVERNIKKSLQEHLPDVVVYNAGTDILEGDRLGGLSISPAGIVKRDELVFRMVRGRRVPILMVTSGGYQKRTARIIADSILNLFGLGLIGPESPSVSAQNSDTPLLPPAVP

Row | SMILES | IC50 (PC-3) | IC50 (SK-BR-3) | IC50 (RPMI-8226) | IC50 (Human HDAC5) | IC50 (DU145) | IC50 (CNE2) | IC50 [1] | IC50 (Human HDAC6) | IC50 (Human HDAC11) | IC50 (PANC-1) | IC50 (Calu-6) | IC50 (A375) | IC50 (Human HDAC9) | IC50 (Human HDAC2) | IC50 (BGC823) | IC50 (SW620) | IC50 (NCI-H226) | IC50 (HepG2) | IC50 (A549) | IC50 (MCG803) | further results
1 | COc1ccc(-c2cc(-c3ccsc3)c(C(=O)NCc3ccc(C(=O)NO)cc3)[nH]2)cc1 [Example 28, N-{4-[(hydroxyamino)carbonyl]benzyl}-5-(4-methoxyphenyl)-3-(3-thienyl)-1H-pyrrole-2-carboxamide] | 1.31 µM | 4.08 µM | 0.462 µM | 640 nM | 1.86 µM | 5.01 µM | 22 nM | 2 nM | 718 nM | 11.5 µM | 0.726 µM | 4.27 µM | 478 nM | 392 nM | 7.79 µM | 2 µM | 12.6 µM | 1.77 µM | 3.43 µM | 6.08 µM | IC50 (SW480): 2.38 µM; IC50 (NCI-N87): 1.48 µM; IC50 (Human HDAC10): 723 nM
2 | O=C(NO)c1ccc(CNC(=O)c2[nH]c(-c3ccc(O)cc3)cc2-c2ccoc2)cc1 [Example 15, 3-(3-furyl)-N-{4-[(hydroxyamino)carbonyl]benzyl}-5-(4-hydroxyphenyl)-1H-pyrrole-2-carboxamide] | 0.281 µM | 0.453 µM | 0.426 µM | 60 nM | 0.46 µM | 16.1 µM | 3.4 nM |  | 72 nM | 6.45 µM | 1.22 µM | 3.68 µM | 59 nM | 144 nM | 5.14 µM | 0.334 µM | 3.05 µM | 2.28 µM | 2.46 µM | 2.01 µM | IC50 (MCF-7-218): 26.5 µM; IC50 (MCF-7-FL): 3.31 µM; IC50 (Human HDAC10): 35 nM
3 | O=C(NO)c1ccc(CNC(=O)c2[nH]c(-c3ccoc3)cc2-c2ccc(O)cc2)cc1 [Example 9, 5-(3-furyl)-N-{4-[(hydroxyamino)carbonyl]benzyl}-3-(4-hydroxyphenyl)-1H-pyrrole-2-carboxamide] | 3 µM | 1.5 µM | 1.31 µM |  | 4.51 µM | 9.54 µM | 26 nM | 6.8 nM |  | 10.7 µM | 9.61 µM | 10.2 µM |  | 909 nM | 9.68 µM | 1.82 µM | 11.9 µM | 5.01 µM | 11.4 µM | 1.1 µM | IC50 (MCF-7-218): 12.8 µM; IC50 (MCF-7-FL): 7.72 µM
4 | O=C(NO)c1ccc(CNC(=O)c2[nH]c(-c3ccc(O)cc3)cc2-c2ccsc2)cc1 [Example 14, N-{4-[(hydroxyamino)carbonyl]benzyl}-5-(4-hydroxyphenyl)-3-(3-thienyl)-1H-pyrrole-2-carboxamide] | 2.41 µM | 0.335 µM | 0.336 µM | 172 nM | 1.52 µM | 11.4 µM | 6.7 nM | 0.44 nM | 319 nM | 9.84 µM | 4.07 µM | 7.7 µM | 277 nM | 318 nM | 13.7 µM | 1.53 µM | 21.3 µM | 2.01 µM | 11 µM | 3.27 µM | IC50 (MCF-7-218): 37.6 µM; melting point: 121 to 122 °C; IC50 (MCF-7-FL): 6.64 µM; IC50 (Human HDAC10): 316 nM
5 | COc1ccc(-c2cc(-c3ccoc3)c(C(=O)NCc3ccc(C(=O)NO)cc3)[nH]2)cc1 [Example 27, 3-(3-furyl)-N-{4-[(hydroxyamino)carbonyl]benzyl}-5-(4-methoxyphenyl)-1H-pyrrole-2-carboxamide] | 0.42 µM | 0.771 µM | 0.0586 µM | 222 nM | 0.339 µM | 0.59 µM | 3.9 nM | 1.6 nM | 341 nM | 0.965 µM | 0.492 µM | 1.04 µM | 163 nM | 157 nM | 0.676 µM | 0.377 µM | 1.77 µM | 0.498 µM | 1.02 µM | 0.738 µM | IC50 (SW480): 0.574 µM; IC50 (NCI-N87): 0.153 µM
